We go through 9 molecules from patent publication US6040293A, “Clavanins” (priority 1997, dated 2000).

Starred links: 1 amine or outer side, 2 acyl side, 3 side chain; linkers in the order of their positions; H or OH if unused. Non-standard residues stand in square brackets, D forms with d. No end group written: not given here. Tyr(Me) = O-methyl tyrosine, COc1ccc(C[C@H](N[*:1])C(=O)[*:2])cc1 A value given as a limit tells only on which side of the number the result lay.

Type in all cases: cell-based
In experiment [1] the test system is P. aeruginosa. Put plainly: minimal bacteriocidal concentrations under various conditions. Conditions: pH 5.5. Also on record: unit not given here. As for the experimental part: (§1) The Tables below show the minimal bacteriocidal concentrations of PG-1, histatin 5, and Clavanin E(3-23) against various organisms under various conditions. E(3-23) was active over a broad pH range and, unlike hisatin 5, it retained activity in the presence of physiological sodium chloride concentrations.
(§2) Low salt conditions (10 mM phosphate)
(§3) High salt conditions (10 mM phosphate+100 mM NaCl)

The test system of experiment [2] is E. coli. The description is as above. Details: unit not given here. Conditions: pH 5.5. As for the experimental part: as §1, §2, §3
Experiment [3] concerns L. monocytogenes. The experiment is described as above. Conditions: pH 5.5. On the procedure: as §1, §2, §3
Experiment [4] concerns C. albicans. The experiment can be described thus: minimal bacteriocidal concentrations and activity under various conditions. Conditions: pH 5.5. On the procedure:
(§4) Finally, the activity of Clavanins A and E as well as E(3-23) and E(6-23) was tested against various target organisms at two pHs with and without salt.
as §1, §2, §3

Experiment [5] deals with Burkaholderia cepacia. As for the experimental part: (§5) In more detail, the filtrates (≈3.5 mg of protein by BCA) were concentrated to 2 ml by vacuum centrifugation in a Speed Vac Concentrator (Savant Instruments, Hicksville, N.Y.). Gel permeation chromatography was performed on a 1.2×65 cm BioGel P-10 gel permeation column with 5% acetic acid. Preparative continuous acid-urea PAGE electrophoresis was performed as described by Harwig, S. S. L. et al., Anal Biochem (1993) 208:382. Active fractions were pooled and purified by RP-HPLC a 4.6×250 mm Vydac C18 column, using various linear gradients of acetonitrile in 0.1% trifluoroacetic acid (TFA) or 0.13% heptafluorobutyric acid (HFBA). Throughout this multistep procedure, fractions were lyophilized, concentrated and tested for antimicrobial activity against Listeria monocytogenes strain EGD by a radial diffusion technique described in Lehrer, R. I. et al., J Immunol Methods (1991) 137:167. In these assays, the underlay gels contained 9 mM sodium phosphate and 1 mM sodium citrate buffer, 0.30 mg/ml of trypticase soy broth powder (BBL, Cockeysville, Md.) and 1% agarose at a final pH of 6.5.
(§6) Clavanin E(2-23) was tested in the standard underlay assay described in Example 1 herein wherein the underlay contained 10 mM sodium phosphate buffer, pH 7.4 and 1:100 trypticase soy broth with and without 200 mM NaCl. The known antimicrobials cecropin A, cecropin B, and cecropin P1 were used as controls.
(§7) The standard underlay assay was again conducted supplying both E(3-23) and PG-1 to the underlay. In these assays, the underlay contained in addition to 1% agarose, 10 mM sodium phosphate buffer, pH 7.4, 1:100 trypticase soy broth and 200 mM NaCl. The underlays contain PG-1 alone, E(3-23) alone, or combinations of E(3-23) and PG-1.

Experiment [6] has as its system S. aureus. As for the experimental part:
as §5, §6, §7, §4

The subject of experiment [7] is E. coli ML-35P. Put plainly: radial diffusion assay. Conditions: radial diffusion (FIG. 5). As for the experimental part: as §5
(§8) In addition to Cecropin P1 and Magainin 1, the activity of Clavanin A(K) was also tested. Clavanin A(K) is identical to Clavanin A except that all of the histidine residues are replaced by lysine. […] The data are provided as minimal bacteriocidal concentrations expressed in μg/ml which are the X-intercepts of radial diffusion assays performed at pH 6.5 in an underlay that contained 10 mM buffer (9:1 citrate:phosphate), 1% agarose and 0.3 mg trypticase soy powder/ml.

Experiment [8] deals with L. monocytogenes EGD. Put plainly: radial diffusion assay. The conditions noted are these: for potency relative to Clavanins A and B: L. monocytogenes Strain EGD, radial diffusion (FIG. 5). As for the experimental part: as §5, §8
The effect of pH on antimicrobial activity against several organisms was tested in a pH range wherein histidine becomes comparably charged to lysine. FIGS. 6-8 show the results for native or synthetic Clavanin A and synthetic Clavanin A(K) using defensin NP-2 as a control, with respect to L. monocytogenes, E. coli, and C. albicans respectively. The radial diffusion assays were conducted as described in Examples 1 and 3 above.

The test system of experiment [9] is E. faecium. Put plainly: radial diffusion assay. Conditions: X-intercept of radial diffusion assay, pH 6.5. On the procedure:
as §5, §8

The test system of experiment [10] is P. aeruginosa. The experiment can be described thus: standard underlay assay. Also on record: dose or concentration left out as unconfirmed. Conditions: pH 7.4. On the procedure: as §5
[…] The known antimicrobials cecropin A, cecropin B, and cecropin P1 were used as controls.
The standard underlay assay was again conducted supplying both E(3-23) and PG-1 to the underlay. […]

Experiment [11] deals with E. coli, L. monocytogenes, P. aeruginosa, S. areus and C. albicans. The experiment can be described thus: activity against various target organisms at two pHs with and without salt. The conditions noted are these: pH 5.5, 200 mM sodium chloride; most organisms (FIG. 13B). On the procedure:
as §4

The mark [12] stands for this setting: high salt (10 mM phosphate+100 mM NaCl).

As to `CC(C)C[C@H](NC(=O)[C@H](CCCNC(=N)N)NC(=O)CNC(=O)CNC(=O)[C@@H](N)CCCNC(=N)N)C(=O)N[C@H]1CSSC[C@@H](C(=O)N[C@H](C(=O)NCC(=O)N[C@@H](CCCNC(=N)N)C(N)=O)C(C)C)NC(=O)[C@H](C(C)C)NC(=O)[C@@H]2CSSC[C@H](NC(=O)[C@H](Cc3ccc(O)cc3)NC1=O)C(=O)N[C@@H](CCCNC(=N)N)C(=O)N[C@@H](CCCNC(=N)N)C(=O)N[C@@H](CCCNC(=N)N)C(=O)N[C@@H](Cc1ccccc1)C(=O)N2` [PG-1], the minimal bacteriocidal concentration in experiment [1] (setting [12]) is listed as 0.20; in experiment [1] (low salt (10 mM phosphate)), 0.20; in [2] (setting [12]) it was 0.04; in experiment [2] (low salt (10 mM phosphate)), 0.05; in [3] (setting [12]) it was 0.10; in experiment [3] (low salt (10 mM phosphate)), 0.10. The minimal bacteriocidal concentration in experiment [4] (setting [12]) came to 0.10; in [4] (low salt (10 mM phosphate)), 0.06. The “effect of E(3-23) on MBC for PG-1” value in experiment [5] (B. cepacia, pH 7.4, 200 mM NaCl, 1 μg/ml E(3-23) present) is “did not effect MBC”. The “MBC for PG-1 in the presence of E(3-23)” value in [6] (pH 7.4) is 0.07 µg/mL. Further, the “minimum bacterial concentration (MBC), agent alone” value in experiment [6] (pH 7.4) is recorded as “approximately 0.9 μg/ml”.

Regarding “AFKLL GRIIH HVGNF VY' GFS HVF* (AFKLLGRIIHHVGNFV[Tyr(Me)]GFSHVF-NH2; also: C-terminal modification (*)) [Clavanin D, Y' is o-methyl tyrosine]”, the “potency relative to Clavanins A and B” value in experiment [7] and in [8] was 3-5 fold each time.

As to Cecropin P1, the minimal bacteriocidal concentration in [9] came to 6.5 µg/mL. In experiment [10], the “activity, E(3-23) and cecropins compared” value is on record as “slightly more active than E(3-23)”.

For “KLLGKIIHHVGNFVHGFSHVF-NH2 [Clavanin E(3-23), KLL GKIIH HVGNF VHGFS HVF*]”, in experiment [5] (pH 7.4), the “MBC of E(3-23) with PG-1 incorporated” value is 2.5 µg/mL and the “MBC, agent alone” value amounted to 7.5 µg/mL. For the same molecule, in experiment [6] (pH 7.4), the “MBC of E(3-23) in the presence of PG-1” value came to 2.5 µg/mL and the “minimum bacterial concentration (MBC), agent alone” value is 7.5 µg/mL.

Take “LFKLLGKIIHHVGNFVHGFSHVF (LFKLLGKIIHHVGNFVHGFSHVF) [Clavanin E]”: the “effect of salt on activity” value is recorded as “better maintained” in experiment [11] and “maintained its activity” in experiment [6] (S. aureus, pH 5.5, 200 mM sodium chloride (FIG. 13B)).

On to “VFHLL GKIIH HVGNF VY' GFS HVF* [Clavanin C, Y' is o-methyl tyrosine]”, for which the “potency relative to Clavanins A and B” value in experiment [7] and in experiment [8] was 3-5 fold in each case.

Turning to “cecropin A (KWKLFKKIEKVGQNIRDGIIKAGPAVAVVGQATQIAK; ends and bridges not checked; UniProt P01507 27-63, looked up) [known antimicrobial used as control]”, the “activity, E(3-23) and cecropins compared” value in [10] is listed as “slightly more active than E(3-23)”.

On to defensin NP-2, for which the “effect of pH of the assay on activity” value in experiment [8] (L. monocytogenes, radial diffusion, pH 5.5, 6.5, 7.5 (FIG. 6)) is given as “no effect”.

For histatin 5 [Hs-5], the minimal bacteriocidal concentration is on record as > 500 in experiment [1] (setting [12]); 2.2 in experiment [1] (low salt (10 mM phosphate)); 60.6 in experiment [2] (setting [12]); 1.1 in experiment [2] (low salt (10 mM phosphate)); > 500 in [3] (setting [12]); 11.8 in experiment [3] (low salt (10 mM phosphate)). Besides, the results for the minimal bacteriocidal concentration in experiment [4] (setting [12]) and in experiment [4] (low salt (10 mM phosphate)) were > 500 and 7.2, respectively.
